Data set [1] has as its target T1, IRAK4 (Homo sapiens, UniProt Q9NWZ3).
T1 construct: with 0.1 nM IRAK4, 1.6 μM of biotinylated peptide substrate and 10 μM ATP
T1 sequence (Q9NWZ3 1-460): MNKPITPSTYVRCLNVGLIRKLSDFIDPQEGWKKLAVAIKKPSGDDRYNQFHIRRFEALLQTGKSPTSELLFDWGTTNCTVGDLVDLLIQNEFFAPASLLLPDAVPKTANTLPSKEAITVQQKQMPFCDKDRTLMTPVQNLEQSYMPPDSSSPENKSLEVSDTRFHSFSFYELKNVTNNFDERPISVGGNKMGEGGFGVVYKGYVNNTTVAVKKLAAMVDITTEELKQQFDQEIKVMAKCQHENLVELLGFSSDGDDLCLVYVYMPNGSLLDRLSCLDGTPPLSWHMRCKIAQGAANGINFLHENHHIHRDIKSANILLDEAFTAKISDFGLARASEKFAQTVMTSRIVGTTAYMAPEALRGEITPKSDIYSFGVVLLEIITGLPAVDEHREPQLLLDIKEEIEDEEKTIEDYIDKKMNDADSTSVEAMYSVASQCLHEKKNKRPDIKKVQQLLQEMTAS
As to the kind of experiment: IRAK4 MSD Biochemical Assay (1 mM ATP, 2 h). Particulars: room temperature, read-out: IRAK4 MSD Biochemical Assay (1 mM ATP, 2 h) IC50. On the procedure: The 2-hour 10 μM ATP Biochemical Assay employs a MesoScale Detection (MSD) format.
The activity is quenched with 11 μl of 70 mM EDTA, pH 8.
To detect the phosphorylated biotinylated peptide substrate, 30 μl of the quenched reaction mixture is added to equivalent wells of a 384 well streptavidin coated MesoScale plate (Meso Scale Discovery #L21SA-1). After a 1 hour incubation of the plate for 1 hour at room temperature with gentle mixing, the plate wells are washed 3 times with 50 mM Tris, pH 7.5, 150 mM NaCl, 0.02% Tween-20.
A 25 μl volume of 1:500 anti-P-Threonine Rabbit polyclonal Antibody plus 1:500 Goat-anti-Rabbit Sulfo Tag Antibody (Meso Scale Discovery R32AB-1) in 50 mM Tris, pH 7.5, 150 mM NaCl, 0.02% Tween-20 plus 2% BSA is then added to each well. After a 1-hour incubation of the plate for 1 hour at room temperature with gentle mixing, the plate wells are washed, 3 times with 50 mM Tris, pH 7.5, 150 mM NaCl, 0.02% Tween-20. A 40 μl volume of 2×MSD Read Buffer (Meso Scale Discovery R92TC-1) is added to each well, and the plate is read immediately in an MSD Plate Reader (Meso Scale Discovery).
The 2-hour 1 mM ATP IRAK4 Biochemical assay was performed as described above, but with […] IRAK4 and 1 mM ATP.

For data set [2], the target named is T2, MDR1 (P-gp) (Homo sapiens, UniProt P08183).
T2 construct: host or cells: MDCK cells
As to the kind of experiment: MDR1-MDCK assay (efflux ratio). Particulars: human, MDCK-MDR1, 1 μM compound, 120 minutes incubation; read-out: MDR1-MDCK Efflux Ratio; (B-A/A-B). It is filed as in vitro ADME. On the procedure:
• The assay makes use of human MDR1 transfected MDCK cells (NIH cell line in-licensed from Absorption Systems) • The compounds are tested at 1 μM concentration prepared in transport buffer (Hank's balanced salt solution with HEPES) • MDR1-MDCK cell are cultured for 7 days in 96 well transwell insert plates (Corning). Insert plates are washed before the assay and TEER (Trans epithelial electric resistance) is measured. • These plates are loaded with test compound solution 85 μL for A-B transport and 260 μL for B-A transport in the respective donor compartment.
Mass balance=100×((Vr×Cr^final)+(Vd×Cd^final))/(Vd×CE) • Where: • dCr/dt is the cumulative concentration in the receiver compartment versus time in μM s^−1 • Vr is the volume of the receiver compartment in cm^3 • Vd is the volume of the donor compartment in cm^3 • A is the area of the insert (0.143 cm^2 for 96-well insert) • CE is the estimated experimental concentration (Time=0) of the dosing solution • Cr^final is the concentration of the receiver at the end of the incubation period • Cd^final is the concentration of the donor at the end of the incubation period.

Molecules are shown by their SMILES.

T2 sequence (P08183 whole entry): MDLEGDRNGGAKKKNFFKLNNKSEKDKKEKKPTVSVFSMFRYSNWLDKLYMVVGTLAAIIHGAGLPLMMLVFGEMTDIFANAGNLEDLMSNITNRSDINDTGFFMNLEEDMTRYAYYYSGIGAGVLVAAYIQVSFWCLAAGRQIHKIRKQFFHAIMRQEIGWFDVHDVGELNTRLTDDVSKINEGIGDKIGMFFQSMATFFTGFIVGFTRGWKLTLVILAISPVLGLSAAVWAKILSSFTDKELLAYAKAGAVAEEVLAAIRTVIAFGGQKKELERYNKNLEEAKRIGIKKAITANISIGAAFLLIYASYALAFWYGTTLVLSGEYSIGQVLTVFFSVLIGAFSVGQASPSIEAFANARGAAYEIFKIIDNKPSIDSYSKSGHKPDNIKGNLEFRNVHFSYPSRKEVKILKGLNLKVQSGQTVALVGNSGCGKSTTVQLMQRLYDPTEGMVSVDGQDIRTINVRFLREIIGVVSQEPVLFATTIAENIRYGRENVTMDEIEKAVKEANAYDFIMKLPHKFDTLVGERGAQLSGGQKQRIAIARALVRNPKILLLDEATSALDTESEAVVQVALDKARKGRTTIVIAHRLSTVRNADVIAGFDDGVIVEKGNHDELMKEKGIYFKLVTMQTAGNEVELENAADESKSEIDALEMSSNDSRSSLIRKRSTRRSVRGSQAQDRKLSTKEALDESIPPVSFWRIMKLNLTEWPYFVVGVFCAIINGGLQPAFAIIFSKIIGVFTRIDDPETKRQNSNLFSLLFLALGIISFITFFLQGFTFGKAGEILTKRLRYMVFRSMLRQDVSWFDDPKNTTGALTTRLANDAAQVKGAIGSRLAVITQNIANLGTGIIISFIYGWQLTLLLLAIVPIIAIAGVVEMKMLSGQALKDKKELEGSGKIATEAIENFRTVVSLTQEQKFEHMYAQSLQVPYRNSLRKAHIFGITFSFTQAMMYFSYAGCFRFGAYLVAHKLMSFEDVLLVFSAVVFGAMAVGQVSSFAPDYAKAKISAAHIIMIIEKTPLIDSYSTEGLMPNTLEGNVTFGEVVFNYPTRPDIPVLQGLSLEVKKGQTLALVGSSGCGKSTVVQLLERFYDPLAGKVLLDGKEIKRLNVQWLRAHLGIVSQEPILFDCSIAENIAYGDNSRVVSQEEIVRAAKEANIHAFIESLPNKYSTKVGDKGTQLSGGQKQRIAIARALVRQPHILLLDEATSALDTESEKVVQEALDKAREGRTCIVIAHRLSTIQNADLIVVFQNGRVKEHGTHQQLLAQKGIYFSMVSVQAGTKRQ

In general, IC50 refers to the concentration that gives 50% inhibition. With `COc1cccc(NC(=O)c2cc3cn(CC4CCOC4)nc3cc2OC)n1.O=C(O)C(F)(F)F` (centres unmarked) [Example 1, 6-Methoxy-N-(6-methoxypyridin-2-yl)-2-((tetrahydrofuran-3-yl)methyl)-2H-indazole-5-carboxamide Trifluoroacetate], the half-inhibitory concentration (IC50) in data set [1] stood at 32.7 nM. In data set [2], the efflux ratio at 120 min, 1 μM stood at 1.1.
Take `CC(C)Oc1cc2nn([C@@H]3CCOC3)cc2cc1C(=O)Nc1cccc(C(F)F)n1` (single isomer, unassigned) [Example 45]: the IC50 in data set [1] came to 2.1 nM. Further, the efflux ratio at 120 min, 1 μM in data set [2] worked out at 1.
For `COc1cccc(NC(=O)c2cc(OC)c3nn(CCC(C)(C)OC)cc3c2)n1.Cl` [Example 15, 7-Methoxy-2-(3-methoxy-3-methylbutyl)-N-(6-methoxypyridin-2-yl)-2H-indazole-5-carboxamide hydrochloride] the same measures were 124 nM and 2.5.
Regarding `CC(C)Oc1cc2nn(C34CCC(C)(C3)OC4)cc2cc1C(=O)Nc1cnn2cc(F)cnc12` (centres unmarked) [Example 100, N-(6-fluoropyrazolo[1,5-a]pyrimidin-3-yl)-6-isopropoxy-2-(1-methyl-2-oxabicyclo[2.2.1]heptan-4-yl)-2H-indazole-5-carboxamide], the IC50 in data set [1] was determined as 1.2 nM.
As for `Cn1cccc(NC(=O)c2cc3cn(C[C@H]4CCOC4)nc3nc2OC2CCC2)c1=O` (single isomer, unassigned) [Example 112], the IC50 in data set [1] amounted to 3.4 nM. Moreover, in data set [2], the efflux ratio at 120 min, 1 μM is 8.3.
`CC(C)Oc1cc2nn(C34CCC(C)(C3)OC4)cc2cc1C(=O)Nc1cccc(C(F)F)n1` (centres unmarked) [Example 97, N-(6-(difluoromethyl)pyridin-2-yl)-6-isopropoxy-2-(1-methyl-2-oxabicyclo[2.2.1]heptan-4-yl)-2H-indazole-5-carboxamide]: in data set [1], the IC50 stood at 0.2 nM. Besides, the efflux ratio at 120 min, 1 μM in data set [2] is 1.1.
The like results for `COc1cc2nn(C[C@H]3CCOC3)cc2cc1C(=O)Nc1cccc(C(F)F)n1` (single isomer, unassigned) [Example 18] were, in that order, 7.1 nM and 0.9.
In the case of `CC(C)Oc1cc2nn([C@H]3CCOC3)cc2cc1C(=O)Nc1cccc(C(F)F)n1` (single isomer, unassigned) [Example 44], in data set [1], the IC50 is 2.2 nM. In data set [2], the efflux ratio at 120 min, 1 μM was found to be 0.8.
As for `CC(C)Oc1nc2nn([C@H]3CCCOC3)cc2cc1C(=O)Nc1cnn2cccnc12` (single isomer, unassigned) [Example 121], the IC50 in data set [1] is 0.7 nM. Besides, in data set [2], the efflux ratio at 120 min, 1 μM was determined as 1.1.
`Cc1cnc2c(NC(=O)c3cc4cn(C[C@@H]5CCOC5)nc4nc3OC(C)C)cnn2c1` (single isomer, unassigned) [Example 105]: the IC50 in data set [1] was 1.5 nM. Besides, the efflux ratio at 120 min, 1 μM in data set [2] amounted to 4.8.
As to `CC(C)Oc1cc2nn(C3CCOCC3)cc2cc1C(=O)Nc1cccc(C(F)F)n1.Cl` [Example 25, N-(6-(difluoromethyl)pyridin-2-yl)-6-isopropoxy-2-(tetrahydro-2H-pyran-4-yl)-2H-indazole-5-carboxamide hydrochloride], the IC50 in data set [1] was 0.3 nM. In data set [2], the efflux ratio at 120 min, 1 μM was determined as 0.6.
As for `COCCC(C)n1cc2cc(C(=O)Nc3cccc(C(F)F)n3)c(OC(C)C)cc2n1.Cl` (centres unmarked) [Example 59, N-(6-(difluoromethyl)pyridin-2-yl)-6-isopropoxy-2-(4-methoxybutan-2-yl)-2H-indazole-5-carboxamide hydrochloride], in data set [1], the IC50 amounted to 1 nM. Further, the efflux ratio at 120 min, 1 μM in data set [2] was determined as 0.4.
Turning to `COCCCn1cc2cc(C(=O)Nc3cccc(C(F)F)n3)c(OC(C)C)cc2n1.Cl` [Example 26, N-(6-(difluoromethyl)pyridin-2-yl)-6-isopropoxy-2-(3-methoxypropyl)-2H-indazole-5-carboxamide hydrochloride], in data set [1], the IC50 amounted to 0.9 nM. In addition, in data set [2], the efflux ratio at 120 min, 1 μM amounted to 0.7.
For `CC(C)Oc1cc2nn(C34COC(C)(C3)C4)cc2cc1C(=O)Nc1cccn(C)c1=O.O=C(O)C(F)(F)F` [Example 55, 6-Isopropoxy-N-(1-methyl-2-oxo-1,2-dihydropyridin-3-yl)-2-(1-methyl-2-oxabicyclo[2.1.1]hexan-4-yl)-2H-indazole-5-carboxamide Trifluoroacetate], the efflux ratio at 120 min, 1 μM in data set [2] was 1.2.
Consider `CC(C)Oc1cc2nn([C@]34CC[C@](C)(C3)OC4)cc2cc1C(=O)Nc1cnn2cccnc12` (single isomer, unassigned) [Example 127], for which the IC50 in data set [1] is 0.4 nM. Further, the efflux ratio at 120 min, 1 μM in data set [2] came to 1.
`CC(C)Oc1cc2nn(C[C@@H]3CCOC3)cc2cc1C(=O)Nc1cccc(C(F)F)n1` (single isomer, unassigned) [Example 21]: the IC50 in data set [1] amounted to 0.5 nM. For the same molecule, the efflux ratio at 120 min, 1 μM in data set [2] was 0.7.
For `COc1cccc(NC(=O)c2cc(OC)c3nn(C4CCOCC4)cc3c2)n1.Cl` [Example 16, 7-Methoxy-N-(6-methoxypyridin-2-yl)-2-(tetrahydro-2H-pyran-4-yl)-2H-indazole-5-carboxamide hydrochloride] the same measures were 211 nM and 3.
For `COC(C)(C)CCn1cc2cc(C(=O)Nc3cccc(C(F)F)n3)c(OC(C)C)cc2n1.Cl` [Example 29, N-(6-(difluoromethyl)pyridin-2-yl)-6-isopropoxy-2-(3-methoxy-3-methylbutyl)-2H-indazole-5-carboxamide hydrochloride], the IC50 in data set [1] is 0.6 nM. In data set [2], the efflux ratio at 120 min, 1 μM worked out at 0.8.
As for `CC(C)Oc1nc2nn(C[C@@H]3CCOC3)cc2cc1C(=O)Nc1cccc2ccnn12` (single isomer, unassigned) [Example 52], the IC50 in data set [1] was found to be 1 nM. Further, the efflux ratio at 120 min, 1 μM in data set [2] was found to be 1.
The like results for `COc1ncccc1NC(=O)c1cc2cn(C3CCOCC3)nc2cc1OC(C)C` [Example 69, 6-Isopropoxy-N-(2-methoxypyridin-3-yl)-2-(tetrahydro-2H-pyran-4-yl)-2H-indazole-5-carboxamide] were, in that order, 1 nM and 1.
As for `Cn1ccc(NC(=O)c2cc3cn(C45CCC(C)(CC4)OC5)nc3cc2OC2CCC2)n1` [Example 140, 6-cyclobutoxy-N-(1-methyl-1H-pyrazol-3-yl)-2-(1-methyl-2-oxabicyclo[2.2.2]octan-4-yl)-2H-indazole-5-carboxamide], the IC50 in data set [1] amounted to 0.9 nM. Besides, the efflux ratio at 120 min, 1 μM in data set [2] was determined as 0.9.
The like results for `CC(C)Oc1nc2nn(C[C@@H]3CCOC3)cc2cc1C(=O)Nc1cccc(C(F)F)n1` (single isomer, unassigned) [Example 107] were, in that order, 0.3 nM and 1.
For `CC(C)Oc1cc2nn([C@@H]3CCCOC3)cc2cc1C(=O)Nc1cccc(C(F)F)n1` (single isomer, unassigned) [Example 43], in data set [1], the IC50 was found to be 0.2 nM. The efflux ratio at 120 min, 1 μM in data set [2] is 0.6.
Consider `CC(C)Oc1nc2nn(C3CCOC3)cc2cc1C(=O)Nc1cnn2cccnc12` (centres unmarked) [Example 37, 6-Isopropoxy-N-(pyrazolo[1,5-a]pyrimidin-3-yl)-2-(tetrahydrofuran-3-yl)-2H-pyrazolo[3,4-b]pyridine-5-carboxamide], for which the IC50 in data set [1] worked out at 6.4 nM. Moreover, in data set [2], the efflux ratio at 120 min, 1 μM came to 2.2.
`Cn1ccc(NC(=O)c2cc3cn(C4CCCOC4)nc3nc2OC2CCC2)n1` (single isomer, unassigned) [Example 130]: the IC50 in data set [1] was determined as 1.7 nM.

Source of the values: patent US20230002361A1, “2H-INDAZOLE DERIVATIVES AND THEIR USE IN THE TREATMENT OF DISEASE” (BIOGEN MA INC., priority 2019, published 2023).
